According to publication PMC12022103 (Scientific Reports, 2025):
≈ marks a conversion by molar mass, not a printed value. Non-standard residues stand in square brackets, D forms with d. Residues, ends and D or L forms follow the SMILES beside them. No end group written: not given here. AEEA = NCCOCCOCC(=O)O

What was measured:
P. aeruginosa [1] = experiment: Minimum inhibitory concentration (MIC), broth dilution; type: cell-based; settings: MH II broth, 5 × 10^5 CFU/mL, 18–24 h, 37 °C, OD600; triplicate, highest number reported; detection limit <0.5 and >128 µM
P. aeruginosa [2] = experiment: Minimum bactericidal concentration (MBC); type: cell-based; settings: 5 µL from MIC wells plated on MH II agar, 37 °C overnight, no visible colonies; triplicate, highest number reported
K. pneumoniae ATCC 13883 [3] = experiment: Minimum inhibitory concentration (MIC), broth dilution; type: cell-based; settings: K. pneumoniae ATCC 13883; MH II broth, 5 × 10^5 CFU/mL, 18–24 h, 37 °C, OD600; triplicate, highest number reported; detection limit <0.5 and >128 µM
Procedure: (§1) The panel of bacterial reference strains used in this work for assessment of synthetic peptide activity originated from the American Type Culture Collection (ATCC) and was obtained from the Diagnostic section at the Department of Microbiology, Oslo University Hospital. The strains used were as follows: E. coli ATCC 25922, K. pneumoniae ATCC 13883, A. baumannii ATCC 17978, S. aureus ATCC 29213, and E. faecalis ATCC 29212.
(§2) Bacterial strains were plated on cation-adjusted Mueller-Hinton (MH II) agar plates and incubated at 37 °C overnight. The day after single colonies were picked and resuspended in sterile-filtered saline (0.9%). The OD of each bacterial suspension was adjusted to McFarland standard 0.5 using a spectrophotometer (UV-1800, Shimadzu), and the suspension further diluted 1:100 in MH II broth, corresponding to 10^6 colony forming units (CFU) per mL. The inoculum suspension was used for MIC, MBC, time-kill and protease stability assessments as described below. To ensure correct inoculum sizes, 10 µL of the bacterial suspensions were diluted 2000-fold in sterile-filtered saline (0.9%) and 100 µL plated onto MH II agar plates. After overnight incubation at 37 °C, colonies were counted. If found to be outside the acceptable number (20–80 colonies per plate corresponding to ∼10^6 CFU/mL), results from further analyses were discarded.
(§3) The peptides were serially diluted (two-fold) directly in 96-well plates (Greiner, MICROPLATE, 96 WELL, PP, U-BOTTOM, NATURAL, 650261) containing MH II broth, corresponding to concentrations in the range 256–0.5 µM. An equal volume of bacterial suspension was added to each well, resulting in a final inoculum of 5 × 10^5 CFU/mL and final peptide concentrations of 128–0.25 µM. The 96-well plates were incubated for 18–24 h at 37 °C, after which the OD of each well was measured at 600 nm in a plate reader (Victor Nivo, Perkin-Elmer). The minimum inhibitory concentration (MIC) was estimated as the lowest concentration of peptide that produced OD600 measurements similar to the control wells containing no bacteria. The experiments were performed in triplicate. Two-fold variations in MIC values were often observed between replicates.

A. baumannii ATCC 17978 [4] = experiment: as above; type: cell-based; settings: MH II broth, 5 × 10^5 CFU/mL, 18–24 h, 37 °C, OD600, triplicate, highest number reported, detection limit <0.5 and >128 µM
Procedure: as §1, §2, §3

E. faecalis ATCC 29212 [5] = experiment: as above; type: cell-based; settings: E. faecalis ATCC 29212; MH II broth, 5 × 10^5 CFU/mL, 18–24 h, 37 °C, OD600; triplicate, highest number reported; detection limit <0.5 and >128 µM
Procedure: as §1, §2, §3

S. aureus ATCC 29213 [6] = experiment: as above; type: cell-based; settings: S. aureus ATCC 29213; MH II broth, 5 × 10^5 CFU/mL, 18–24 h, 37 °C, OD600; triplicate, highest number reported; detection limit <0.5 and >128 µM
Procedure: as §1, §2, §3

E. coli ATCC 25922 [7] = experiment: as above; type: cell-based, Escherichia coli; settings: E. coli ATCC 25922; two-fold dilution in MH II broth, 5 × 10^5 CFU/mL, 18–24 h, 37 °C, OD600; triplicate, highest number reported; detection limit <0.5 and >128 µM
Procedure: as §1, §2, §3

E. coli ATCC 25922 [8] = experiment: Minimum bactericidal concentration (MBC); type: cell-based, Escherichia coli; settings: 5 µL from MIC wells plated on MH II agar, 37 °C overnight, no visible colonies, triplicate, highest number reported, detection limit <0.5 and >128 µM
Procedure: as §1, §2
(§4) In order to assess the minimum bactericidal concentration (MBC) of peptides, 5 µL from each well of the 96-well plate used for MIC analysis was plated onto MH II agar and incubated at 37 °C overnight. […] The experiments were performed in triplicate. Two-fold variations in MIC values were often observed between replicates.

K. pneumoniae ATCC 13883 [9] = experiment: Minimum bactericidal concentration (MBC); type: cell-based; settings: 5 µL from MIC wells plated on MH II agar, 37 °C overnight, no visible colonies, triplicate, highest number reported
Procedure: as §1, §2, §4

A. baumannii ATCC 17978 [10] = experiment: Minimum bactericidal concentration (MBC); type: cell-based; settings: 5 µL from MIC wells plated on MH II agar, 37 °C overnight, no visible colonies, triplicate, highest number reported
Procedure: as §1, §2, §4

E. faecalis ATCC 29212 [11] = experiment: Minimum bactericidal concentration (MBC); type: cell-based; settings: 5 µL from MIC wells plated on MH II agar, 37 °C overnight, no visible colonies, triplicate, highest number reported
Procedure: as §1, §2, §4

S. aureus ATCC 29213 [12] = experiment: Minimum bactericidal concentration (MBC); type: cell-based; settings: 5 µL from MIC wells plated on MH II agar, 37 °C overnight, no visible colonies, triplicate, highest number reported
Procedure: as §1, §2, §4

Molecule	MIC, P. aeruginosa (P. aeruginosa [1])	MBC, P. aeruginosa (P. aeruginosa [2])	MIC, K. pneumoniae (K. pneumoniae ATCC 13883 [3])	MIC, A. baumannii (A. baumannii ATCC 17978 [4])	MIC, E. faecalis (E. faecalis ATCC 29212 [5])	MIC, S. aureus (S. aureus ATCC 29213 [6])	MIC, E. coli (E. coli ATCC 25922 [7])	MBC, E. coli (E. coli ATCC 25922 [8])	MBC, K. pneumoniae (K. pneumoniae ATCC 13883 [9])	MBC, A. baumannii (A. baumannii ATCC 17978 [10])	MBC, E. faecalis (E. faecalis ATCC 29212 [11])	MBC, S. aureus (S. aureus ATCC 29213 [12])
CC[C@H](C)[C@H](NC(=O)[C@H](CC(C)C)NC(=O)[C@H](CCC(N)=O)NC(=O)[C@H](CC(C)C)NC(=O)[C@@H](NC(=O)[C@H](C)NC(=O)COCCOCCNC(=O)[C@H](CCCCN)NC(=O)[C@H](CCCCN)NC(=O)[C@H](CCCCN)NC(=O)[C@H](CCCCN)NC(=O)[C@H](CCCCN)NC(=O)[C@@H](N)C(C)C)C(C)C)C(=O)N[C@@H](CC(C)C)C(=O)N[C@@H](CCCCN)C(=O)N[C@@H](Cc1ccccc1)C(=O)N[C@@H](CC(C)C)C(N)=O [3c-N10] (H-VKKKKK[AEEA]AVLQLILKFL-NH2)	64 µM (≈ 131 µg/mL)	32 µM (≈ 65.3 µg/mL)	16 µM (≈ 32.7 µg/mL)	16 µM (≈ 32.7 µg/mL)	16 µM (≈ 32.7 µg/mL)	32 µM (≈ 65.3 µg/mL)	16 µM (≈ 32.7 µg/mL)	16 µM (≈ 32.7 µg/mL)	16 µM (≈ 32.7 µg/mL)	16 µM (≈ 32.7 µg/mL)	16 µM (≈ 32.7 µg/mL)	32 µM (≈ 65.3 µg/mL)
CC[C@H](C)[C@H](NC(=O)[C@H](CC(C)C)NC(=O)[C@H](CCC(N)=O)NC(=O)[C@H](CC(C)C)NC(=O)[C@@H](NC(=O)[C@H](C)NC(=O)[C@H](CCCCN)NC(=O)[C@H](CCCCN)NC(=O)[C@H](CCCCN)NC(=O)COCCOCCNC(=O)[C@H](CCCCN)NC(=O)[C@H](CCCCN)NC(=O)[C@@H](N)C(C)C)C(C)C)C(=O)N[C@@H](CC(C)C)C(=O)N[C@@H](CCCCN)C(=O)N[C@@H](Cc1ccccc1)C(=O)N[C@@H](CC(C)C)C(N)=O [3d-N10] (H-VKK[AEEA]KKKAVLQLILKFL-NH2)	64 µM (≈ 131 µg/mL)	64 µM (≈ 131 µg/mL)	32 µM (≈ 65.3 µg/mL)	16 µM (≈ 32.7 µg/mL)	32 µM (≈ 65.3 µg/mL)	32 µM (≈ 65.3 µg/mL)	16 µM (≈ 32.7 µg/mL)	16 µM (≈ 32.7 µg/mL)	32 µM (≈ 65.3 µg/mL)	16 µM (≈ 32.7 µg/mL)	32 µM (≈ 65.3 µg/mL)	32 µM (≈ 65.3 µg/mL)
CC[C@H](C)[C@H](NC(=O)[C@H](CC(C)C)NC(=O)[C@H](CCC(N)=O)NC(=O)[C@H](CC(C)C)NC(=O)[C@@H](NC(=O)[C@H](C)NC(=O)[C@H](CCCCN)NC(=O)[C@H](CCCCN)NC(=O)[C@H](CCCCN)NC(=O)[C@H](CCCCN)NC(=O)[C@H](CCCCN)NC(=O)[C@@H](N)C(C)C)C(C)C)C(=O)NCCOCCOCC(=O)N[C@@H](CC(C)C)C(=O)N[C@@H](CCCCN)C(=O)N[C@@H](Cc1ccccc1)C(=O)N[C@@H](CC(C)C)C(N)=O [3e-N10] (H-VKKKKKAVLQLI[AEEA]LKFL-NH2)	32 µM (≈ 65.3 µg/mL)	> 128 µM	128 µM (≈ 261 µg/mL)	32 µM (≈ 65.3 µg/mL)	> 128 µM	> 128 µM	128 µM (≈ 261 µg/mL)	128 µM (≈ 261 µg/mL)	128 µM (≈ 261 µg/mL)	64 µM (≈ 131 µg/mL)	> 128 µM	> 128 µM
KKKKAVLQLILLFL-NH2 [2a-N12]	> 128 µM	> 128 µM	> 128 µM	> 128 µM	> 128 µM	> 128 µM	> 128 µM	> 128 µM	> 128 µM	> 128 µM	> 128 µM	> 128 µM
KKKKFVLKLILKLL-NH2 [2e-N12]	> 128 µM	> 128 µM	> 128 µM	> 128 µM	> 128 µM	> 128 µM	> 128 µM	> 128 µM	> 128 µM	> 128 µM	> 128 µM	> 128 µM
KKKKFVLQLILKLL-NH2 [2f-N12]	> 128 µM	> 128 µM	> 128 µM	> 128 µM	> 128 µM	> 128 µM	> 128 µM	> 128 µM	> 128 µM	> 128 µM	> 128 µM	> 128 µM
KKKKIAVLQLILLFL-NH2 [2b-N12]	> 128 µM	> 128 µM	> 128 µM	> 128 µM	> 128 µM	> 128 µM	> 128 µM	> 128 µM	> 128 µM	> 128 µM	> 128 µM	> 128 µM
KKKKIIAVLQLILLFL-NH2 [2c-N12]	> 128 µM	> 128 µM	> 128 µM	> 128 µM	> 128 µM	> 128 µM	> 128 µM	> 128 µM	> 128 µM	> 128 µM	> 128 µM	> 128 µM
KKKKIIIAVLQLILLFL-NH2 [2d-N12]	> 128 µM	> 128 µM	> 128 µM	> 128 µM	> 128 µM	> 128 µM	> 128 µM	> 128 µM	> 128 µM	> 128 µM	> 128 µM	> 128 µM
KKKKKKFVLKLILKLL-NH2 [2g-N12]	128 µM	128 µM	64 µM	128 µM	64 µM	128 µM	128 µM	128 µM	128 µM	128 µM	128 µM	128 µM
KKKKKKFVLQLILKLL-NH2 [2h-N12]	> 128 µM	> 128 µM	> 128 µM	> 128 µM	> 128 µM	> 128 µM	> 128 µM	> 128 µM	> 128 µM	> 128 µM	> 128 µM	> 128 µM
